From paper PMC10650131 (International Journal of Molecular Sciences, 2023)
“And” between values parts separate entries of the source, which are not always exact repeats. Identical values can stand only once. “Also recorded” adds a separate entry of the source. Like-named read-outs stand apart in the source and are kept apart here.

Columns and labels:
[1] = tested on: MAO-A; set-up: method as in earlier work; conditions: ref 49 (Park et al. 2020); cited from earlier work
[2] = biological target: T1, hD2LR (Homo sapiens, UniProt P14416); assay: Cell-based functional GPCR assay, Ca2+ mobilization, CHO-D2R; conditions: for % Stimulation, hD2LR: 100 μM compound, % of control agonist response (10 μM DA)
T1 construct: host or cells: CHO (CHO-D2R)
Procedure: (§1) Cell-based functional GPCR assays were conducted in CHO cells and Ba/F3 cells transfected with a plasmid containing the GPCR gene of interest. The functional activity of the test compounds (agonist or antagonist) was evaluated by measuring their effects on cAMP modulation or Ca^2+ ion mobilization, depending on the receptor type. All assays were performed at Eurofins Cerep (Le Bois I’Eveque, France) following their in-house protocol, as stated in our previous reports.
(§2) The functional activity of the test compounds on D2R and 5HT1AR was tested by fluorimetrically evaluating their effect on cytosolic Ca^2+ ion mobilization. […] Then, a fluorescent probe (Fluo8, AAT Bioquest, Sunnyvale, CA, USA) mixed with probenecid in HBSS (Invitrogen, Carlsbad, CA, USA) supplemented with […] (Invitrogen) (pH 7.4) was added to each well, and the cells were allowed to equilibrate for 60 min at 37 °C. […] We then measured the fluorescent intensity, which varied in proportion to the free cytosolic Ca^2+ ion concentration.

[3] = biological target: hD3R (Homo sapiens, UniProt P35462); assay: Cell-based functional GPCR assay, cAMP, CHO-D3R
Procedure: as §1
(§3) The functional activity of the test compounds on D1R, D3R, and D4R was assessed by evaluating the effect on cAMP modulation.

[4] = biological target: T2, hMAO-B (Homo sapiens, UniProt P27338); assay: In vitro hMAO-B inhibition and enzyme kinetics, chemiluminescent MAO-Glo assay; type: biochemical; conditions: for IC50: recombinant hMAO-B, mean ± SD of triplicate experiments; for SI (selective index): ratio of hMAO-A IC50/hMAO-B IC50
T2 construct: purchased Sigma-Aldrich
T2 sequence (P27338 1-520): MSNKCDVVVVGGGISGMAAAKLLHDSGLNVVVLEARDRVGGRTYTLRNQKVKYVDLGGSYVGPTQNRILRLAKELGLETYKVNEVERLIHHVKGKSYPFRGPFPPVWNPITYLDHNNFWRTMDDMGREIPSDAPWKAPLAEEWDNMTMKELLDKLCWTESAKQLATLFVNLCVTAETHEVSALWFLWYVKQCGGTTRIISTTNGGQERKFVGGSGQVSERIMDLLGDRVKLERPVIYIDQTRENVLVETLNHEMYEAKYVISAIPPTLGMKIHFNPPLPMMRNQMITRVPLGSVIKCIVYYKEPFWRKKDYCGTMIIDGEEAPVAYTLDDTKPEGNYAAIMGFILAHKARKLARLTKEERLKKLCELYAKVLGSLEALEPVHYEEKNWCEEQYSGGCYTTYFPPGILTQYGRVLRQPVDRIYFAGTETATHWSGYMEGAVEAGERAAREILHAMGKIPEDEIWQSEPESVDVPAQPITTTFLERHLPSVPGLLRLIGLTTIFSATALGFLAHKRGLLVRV
Procedure: (§4) A chemiluminescent assay was performed in a white, opaque 96-well plate using the MAO-Glo kit (Promega, Madison, WI, USA) to evaluate human monoamine oxidase (hMAO) inhibitory potential. Detailed experimental conditions and procedures were reported previously. The test compounds were evaluated at different concentrations to obtain an IC50 value. The percent of inhibition (%) was obtained with the following equation: % Inhibition = (Ac − As)/Ac × 100, where Ac is the absorbance of the control and As is the absorbance of the sample. For hMAO-A, clorgyline was used as a positive control.
(§5) Kinetic parameters were analyzed using SigmaPlot (v12.0, SPP Inc., Chicago, IL, USA).

[5] = biological target: T3, hD4.4R (Homo sapiens, UniProt P21917); assay: Cell-based functional GPCR assay, cAMP, CHO-D4R; conditions: for % Stimulation, hD4.4R: 100 μM compound, % of control agonist response (300 nM DA)
T3 sequence (P21917 1-419): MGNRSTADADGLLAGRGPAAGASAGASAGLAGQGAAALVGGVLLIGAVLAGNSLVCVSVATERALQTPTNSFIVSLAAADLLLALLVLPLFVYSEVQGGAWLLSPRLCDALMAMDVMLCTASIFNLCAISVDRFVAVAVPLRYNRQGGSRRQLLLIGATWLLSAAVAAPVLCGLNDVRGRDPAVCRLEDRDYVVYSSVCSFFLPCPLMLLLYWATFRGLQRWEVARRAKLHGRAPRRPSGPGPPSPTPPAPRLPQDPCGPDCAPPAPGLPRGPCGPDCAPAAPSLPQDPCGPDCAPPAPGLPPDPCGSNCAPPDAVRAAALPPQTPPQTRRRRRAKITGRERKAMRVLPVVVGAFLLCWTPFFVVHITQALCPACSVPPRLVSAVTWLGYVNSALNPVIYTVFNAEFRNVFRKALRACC
Procedure: as §1, §3

[6] = biological target: T4, h5HT1AR (Homo sapiens, UniProt P08908); assay: Cell-based functional GPCR assay, Ca2+ mobilization, Ba/F3-5HT1AR; conditions: for % Stimulation, h5HT1AR: 100 μM compound, % of control agonist response (2.5 μM serotonin)
T4 construct: host or cells: Ba/F3 (Ba/F3-5HT1AR)
T4 sequence (P08908 1-422): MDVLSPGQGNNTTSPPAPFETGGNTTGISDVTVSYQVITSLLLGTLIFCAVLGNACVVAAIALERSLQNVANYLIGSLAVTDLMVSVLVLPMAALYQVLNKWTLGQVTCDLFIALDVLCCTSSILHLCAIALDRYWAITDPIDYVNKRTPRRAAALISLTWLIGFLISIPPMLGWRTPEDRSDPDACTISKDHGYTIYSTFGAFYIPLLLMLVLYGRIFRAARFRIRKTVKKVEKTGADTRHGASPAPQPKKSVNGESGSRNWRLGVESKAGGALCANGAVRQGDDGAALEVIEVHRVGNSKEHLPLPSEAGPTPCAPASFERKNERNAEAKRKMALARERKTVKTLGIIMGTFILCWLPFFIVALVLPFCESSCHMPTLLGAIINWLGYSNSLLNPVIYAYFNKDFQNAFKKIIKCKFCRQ
Procedure: as §1, §2

[7] = biological target: hD1R (Homo sapiens, UniProt P21728); assay: Cell-based functional GPCR assay, cAMP, CHO-D1R; conditions: for % Stimulation, hD1R: 100 μM compound, % of control agonist response (10 μM DA)
Procedure: as §1, §3

[8] = tested on: male C57BL/6 mice; assay: Forced swim test; type: in vivo, mouse
Procedure: Male C57BL/6 mice (22–26 g, 7 weeks) were purchased from Orient Bio Inc. (Seongnam-si, Korea), a branch of Charles River Laboratories (Seoul, Republic of Korea), and kept in the University Animal Care Unit for 1 week before the experiments. Five animals were housed per cage and allowed access to water and food ad libitum; the environment was maintained at a constant temperature (23 ± 1 °C) and humidity (60 ± 10%) under a 12 h light/dark cycle (the lights were on from 07:30 to 19:30 h). The treatment and maintenance of the animals were carried out according to the Animal Care and Use Guidelines of Dong-A University, Republic of Korea. All in vivo experiments were performed according to the protocols approved by the Institutional Animal Care and Use Committee of Dong-A University (approved protocol numbers: DIACUC-approved-17-20) and were per the National Institutes of Health guidelines. A forced swim test (FST) was performed in a transparent cylindrical glass cylinder with a diameter of 14 cm and a height of 25 cm filled with 20 cm of water (24 ± 2 °C). Mice were habituated to the experimental environment 1 h before the test. […] Mice were immersed in water and recorded with a video camera for a total of 6 min. Immobility time was analyzed for the last 4 min of the 6 min using a video-based Ethovision System (Noldus, Wageningen, The Netherlands).

[9] = biological target: T5, hMAO-A (Homo sapiens, UniProt P21397); assay: In vitro hMAO-A inhibition and enzyme kinetics, chemiluminescent MAO-Glo assay; type: biochemical; conditions: recombinant hMAO-A; mean ± SD of triplicate experiments
T5 construct: purchased Sigma-Aldrich
T5 sequence (P21397 1-527): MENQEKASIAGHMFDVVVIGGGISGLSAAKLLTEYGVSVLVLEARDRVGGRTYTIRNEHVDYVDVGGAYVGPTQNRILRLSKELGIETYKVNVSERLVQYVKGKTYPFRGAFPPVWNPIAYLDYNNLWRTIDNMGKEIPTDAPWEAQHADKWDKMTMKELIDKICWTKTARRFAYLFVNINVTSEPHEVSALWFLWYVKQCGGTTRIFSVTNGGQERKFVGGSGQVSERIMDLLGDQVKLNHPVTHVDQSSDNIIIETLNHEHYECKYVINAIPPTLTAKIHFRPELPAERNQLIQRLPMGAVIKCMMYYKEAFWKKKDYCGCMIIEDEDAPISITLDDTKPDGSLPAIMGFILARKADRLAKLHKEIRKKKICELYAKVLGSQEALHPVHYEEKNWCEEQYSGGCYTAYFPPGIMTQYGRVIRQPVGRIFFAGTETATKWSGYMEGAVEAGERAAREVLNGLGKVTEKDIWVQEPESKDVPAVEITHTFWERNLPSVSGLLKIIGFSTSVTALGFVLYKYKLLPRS
Procedure: as §4, §5

[10] = set-up: method as in PMID 31173966; conditions: cited from earlier work

Sequence of hD3R (P35462 whole entry): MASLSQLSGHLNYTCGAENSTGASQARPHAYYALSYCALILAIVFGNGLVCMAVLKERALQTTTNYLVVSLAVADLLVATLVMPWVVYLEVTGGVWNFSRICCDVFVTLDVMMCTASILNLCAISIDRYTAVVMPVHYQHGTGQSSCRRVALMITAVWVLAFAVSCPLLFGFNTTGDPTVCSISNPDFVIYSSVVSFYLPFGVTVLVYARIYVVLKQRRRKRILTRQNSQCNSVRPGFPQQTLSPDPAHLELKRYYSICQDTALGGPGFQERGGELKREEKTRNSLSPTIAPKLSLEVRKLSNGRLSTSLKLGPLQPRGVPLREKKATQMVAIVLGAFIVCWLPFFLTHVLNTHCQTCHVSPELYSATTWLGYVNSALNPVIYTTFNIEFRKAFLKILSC
T1 sequence (P14416 whole entry): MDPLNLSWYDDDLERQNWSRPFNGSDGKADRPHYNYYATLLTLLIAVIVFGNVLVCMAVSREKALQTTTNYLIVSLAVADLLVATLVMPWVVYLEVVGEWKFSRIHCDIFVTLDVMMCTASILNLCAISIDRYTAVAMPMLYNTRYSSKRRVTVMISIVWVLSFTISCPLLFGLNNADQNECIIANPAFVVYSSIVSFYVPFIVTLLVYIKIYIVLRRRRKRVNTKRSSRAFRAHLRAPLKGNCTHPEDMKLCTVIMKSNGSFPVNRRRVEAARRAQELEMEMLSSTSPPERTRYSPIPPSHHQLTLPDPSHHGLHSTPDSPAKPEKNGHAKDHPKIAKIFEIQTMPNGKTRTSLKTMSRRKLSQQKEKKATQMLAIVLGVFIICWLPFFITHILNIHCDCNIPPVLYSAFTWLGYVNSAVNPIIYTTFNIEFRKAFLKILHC
Sequence of hD1R (P21728 whole entry): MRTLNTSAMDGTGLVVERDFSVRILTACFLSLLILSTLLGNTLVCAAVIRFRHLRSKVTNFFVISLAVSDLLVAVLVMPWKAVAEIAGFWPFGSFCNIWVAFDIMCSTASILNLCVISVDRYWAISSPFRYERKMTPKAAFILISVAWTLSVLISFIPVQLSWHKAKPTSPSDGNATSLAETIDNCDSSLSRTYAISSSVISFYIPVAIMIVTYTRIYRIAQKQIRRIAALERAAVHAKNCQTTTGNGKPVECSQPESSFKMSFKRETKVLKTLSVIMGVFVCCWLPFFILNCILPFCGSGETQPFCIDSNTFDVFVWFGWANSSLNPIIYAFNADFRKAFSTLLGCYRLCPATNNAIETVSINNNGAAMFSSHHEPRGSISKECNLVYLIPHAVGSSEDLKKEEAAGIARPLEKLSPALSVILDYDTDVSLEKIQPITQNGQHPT

Structure (SMILES)	inhibition at 100 µM [2] [%]	% Stimulation, hD2LR [2] [%]	inhibition at 100 µM [3] [%]	IC50 [4]	inhibition at 100 µM [5] [%]	% Stimulation, hD4.4R [5] [%]	inhibition at 100 µM [6] [%]	% Stimulation, h5HT1AR [6] [%]	inhibition at 100 µM [7] [%]	% Stimulation, hD1R [7] [%]	SI (selective index) [4]	IC50 [9] [µM]	also measured
O=c1cc(-c2ccc(O)c(O)c2)oc2cc(O)cc(O)c12 [luteolin, 3′,4′,5,7-tetrahydroxyflavone]	–	–	–	–	–	–	–	–	–	–	–	–	IC50 [1]: 8.57 ± 0.47 µM
CNCCCN1c2ccccc2CCc2ccccc21 [desipramine, reference compound]	–	–	–	–	–	–	–	–	–	–	–	–	Immobility time in forced swimming test ([8]; 15 mg/kg dose p.o., positive control): significant reduction in immobility time
C=C(C)[C@@H]1CCC(C)=C[C@H]1c1c(O)cc(CCCCC)cc1O [cannabidiol]	–	–	–	–	–	–	–	–	–	–	–	–	Effect on depressive symptoms ([10]; 10 mg/kg i.v. weekly for four weeks): significantly improve depressive symptoms; Effect on depressive symptoms ([10]; 10 mg/kg p.o.): no significant effects; Effect on depressive symptoms ([10]; 100 mg/kg p.o. weekly for four weeks): significantly improve depressive symptoms

Further lines, with some results ahead:

inhibition at 100 µM [2] [%]	% Stimulation, hD2LR [2] [%]	inhibition at 100 µM [3] [%]	IC50 [4]	inhibition at 100 µM [5] [%]	% Stimulation, hD4.4R [5] [%]	inhibition at 100 µM [6] [%]	% Stimulation, h5HT1AR [6] [%]	inhibition at 100 µM [7] [%]	% Stimulation, hD1R [7] [%]	SI (selective index) [4]	IC50 [9] [µM]	Structure (SMILES)	also measured
-40	−22.45 ± 2.05	-0.97	> 150 µM	134	10.33 ± 7.46	18.1	−2.9 ± 0.28	0.7	6.95 ± 14.07	–	–	O=c1cc(-c2ccc(O)c(O)c2)oc2cc(O)ccc12 [Compound 1, 3′,4′,7-trihydroxyflavone]	% Stimulation, hD3R ([3]; 100 μM compound, % of control agonist response (300 nM DA)): 38.5 ± 5.94%; inhibition at 12.5 µM ([5]; 12.5 µM compound, read-out: % inhibition of the response of the control agonist, hD4.4R): 40.9%; inhibition at 25 µM ([5]; 25 µM compound, read-out: % inhibition of the response of the control agonist, hD4.4R): 57.6%; inhibition at 50 µM ([5]; 50 µM compound, read-out: % inhibition of the response of the control agonist, hD4.4R): 69%; IC50 ([5]; read-out: IC50, antagonist effect at hD4.4R): 22.5 ± 2.18 µM; Immobility time in forced swimming test ([8]; 3, 10, and 30 mg/kg p.o., 1 h before FST): did not reduce the immobility time; also recorded: none of those doses alleviated the immobility time; also recorded: did not show an antidepressant effect
-25.8	−18.35 ± 0.78	-8	~70 µM and 71.2 µM	-11.2	35.8 ± 10.59	7.3	−1.1 ± 0.42	22.2	−3.1 ± 5.66	2.48	177 ± 7.8	O=c1c(-c2ccc(O)c(O)c2)coc2cc(O)ccc12 [Compound 2, 3′,4′,7-trihydroxyisoflavone]	–
-18.6	−13.8 ± 0.28	-7.97	7.19 ± 0.32 µM	-27.3	33.63 ± 12.10	16.8	2.5 ± 0.42	47.8	5.65 ± 11.53	15.82	114 ± 3.39	COc1ccc(-c2coc3cc(O)ccc3c2=O)cc1O [Compound 3, calycosin]	Ki ([4]; Lineweaver–Burk plot and its secondary plots, read-out: Inhibition constants (Ki) hMAO-B): 2.56 µM; Inhibition mode, hMAO-B ([4]; secondary plot of slopes (Kmapp/Vmaxapp) versus concentrations of inhibitor): Competitive
